Reference: publication PMC8951016, “Computational Design and Biological Evaluation of Analogs of Lupin Peptide P5 Endowed with Dual PCSK9/HMG-CoAR Inhibiting Activity” (Pharmaceutics, 2022)

System: LDL uptake, HepG2 cells
Test: Fluorescent LDL uptake in HepG2 cells (peptide alone)
Assay type: cell-based, human
Conditions: 50 µM, vs control, average ± SD, four independent experiments in duplicate
Protocol: HepG2 cells (3 × 10^4/well) were seeded in 96-well plates and kept in complete growth medium for 2 days before treatment. The third day, cells were washed with PBS and then starved overnight (O/N) in DMEM without FBS and antibiotics. After starvation, they were treated with 4.0 μg/mL PCSK9 and 4.0 μg/mL PCSK9 + P5 and P5 analogs peptides (50 µM), and vehicle (H2O) for 2 h with at 37 °C under 5% CO2 atmosphere. Fluorescent LDL-uptake was finally assessed following optimized protocol. See Supplementary Materials for further details.
PBS for 1.5 h at RT. LDLR primary antibody solution (1:3000 in 5% BSA in PBS, 25 µL/well) was incubated O/N at +4 °C. […] The reaction was stopped with 2 M H2SO4 and then the absorbance at 450 nm was measured using the microplate reader Synergy H1 (Winoo-ski, VT, USA). After the read, cells were stained by adding 1 X Janus Green stain, incubat-ing for 5 min at RT. […]
Afterward 100 µL 0.5 M HCl for well were added and incubated for 10 min. After 10 sec-onds shaking, the OD at 595 nm was measured using the microplate reader Synergy H1 […]
Fluorescent LDL Uptake. […] The degree of LDL uptake was measured using the Synergy H1 fluo-rescent plate reader (Winooski, VT, USA) (excitation and emission wavelengths 540 and 570 nm, respectively). Fluorescent LDL-uptake was finally assessed following optimized […]

**Q.** How did the “ability of HepG2 cells to uptake extracellular LDL” value turn out when “LILPKHSDAD [Peptide P5, natural peptide derived from a peptic lupin protein hydrolysate]” was run?
**A.** The value was 203.8 ± 40.67%.
